Test results: publication PMC7076875 (2020)

Test system: apt 32 (DNA, aptamer) AAAAAAAAAAAAGGGCACGTGTTGTCTCTCTGTGTCTCGTGCCC
Assay: lateral flow strip, competition with complementary strand
Settings: 120 mM NaCl, 5 mM KCl, 200 mM MgCl2; 10 mM Tris pH 7.4, 5% methanol, room temperature; immobilised probe 2 competes; tested at 100 ng/mL

Compound: CCCC[C@@H](C)[C@@H](OC(=O)C[C@@H](CC(=O)O)C(=O)O)[C@H](C[C@@H](C)C[C@H](O)CCCC[C@@H](O)C[C@H](O)[C@H](C)N)OC(=O)C[C@@H](CC(=O)O)C(=O)O
- binding: no

Compound: C[C@H]1CCCC(=O)CCC/C=C/c2cc(O)cc(O)c2C(=O)O1
- binding: no

Compound: C[C@@H]1Cc2c(Cl)cc(C(=O)N[C@@H](Cc3ccccc3)C(=O)O)c(O)c2C(=O)O1
- binding: no
